Patent publication US20240173341A1, “COMPOSITION FOR AMELIORATING OR TREATING DEMENTIA CONTAINING 2'-FUCOSYLLACTOSE” (Advanced Protein Technologies Corp., priority 2022, published 2024)

Tests used:
[1] = system: 5×FAD (Aβ plaques) Alzheimer's models; assay: Water maze test, dementia group; assay type: in vivo, mouse
Experimental: The experimental animals used herein were 24-week-old 5×FAD (Aβ plaques) Alzheimer's models. The experimental animals were raised at a temperature of 22±3° C., at a relative humidity of 30±10%, and at an illuminance of 150 to 300 Lux for a lighting period of 12 hours (08:00˜20:00), and five or less animals were raised in each polycarbonate cage. The distilled water (DW)-administered group was used as a negative control (vehicle), and a donepezil-administered group was used as a positive control. The term “dementia group” refers to 5×FAD mice administered distilled water and the term “normal group” refers to wild-type mice administered distilled water. 2′-FL was orally administered at various concentrations to wild-type and 5×FAD mouse groups for 8 weeks and then a water maze test was performed. Specifically, a circular water tank with a diameter of 150 cm and a height of 60 cm was filled to a height of 30 cm with water, and an escape platform was installed in one area of the four quadrants of the tank. During the training period, the escape platform was placed 1 cm below the surface of the water in the tank so that it was invisible, training was repeated at the identical water entry point three times a day, and recording was performed using a video tracking system (SMART v3.0 panlab SL). When the experimental animal reached the escape platform within 60 seconds, it was allowed to stay on the escape platform for 15 seconds, and when it could not find the escape platform, it was guided to the escape platform by hand and trained to stay on the escape platform alone for 20 seconds. In the probe test on the 6th day, the escape platform was removed and the experimental animals were allowed to swim freely for 60 seconds. At this time, the time (sec) to first reach the location of the escape platform and the number of target crossings were recorded (FIG. 1). FIG. 1 is a schematic diagram illustrating the water maze test method.

wild-type mice = assay: Water maze test, normal group; assay type: in vivo, mouse; settings: oral 8 weeks, compared to distilled water (vehicle), FIGS. 2 and 3
Experimental: The distilled water (DW)-administered group was used as a negative control (vehicle), and a donepezil-administered group was used as a positive control. The term “dementia group” refers to 5×FAD mice administered distilled water and the term “normal group” refers to wild-type mice administered distilled water. 2′-FL was orally administered at various concentrations to wild-type and 5×FAD mouse groups for 8 weeks and then a water maze test was performed. Specifically, a circular water tank with a diameter of 150 cm and a height of 60 cm was filled to a height of 30 cm with water, and an escape platform was installed in one area of the four quadrants of the tank. During the training period, the escape platform was placed 1 cm below the surface of the water in the tank so that it was invisible, training was repeated at the identical water entry point three times a day, and recording was performed using a video tracking system (SMART v3.0 panlab SL). When the experimental animal reached the escape platform within 60 seconds, it was allowed to stay on the escape platform for 15 seconds, and when it could not find the escape platform, it was guided to the escape platform by hand and trained to stay on the escape platform alone for 20 seconds. […] At this time, the time (sec) to first reach the location of the escape platform and the number of target crossings were recorded (FIG. 1). […]

[2] = system: 5×FAD (Aβ plaques) Alzheimer's models; assay: Y-maze test; assay type: in vivo, mouse; settings: 5×FAD mice, oral 8 weeks, all concentrations, compared to the dementia group; n=8~12, FIG. 6
Experimental: (§1) The experimental animals used herein were 24-week-old 5×FAD (Aβ plaques) Alzheimer's models. The experimental animals were raised at a temperature of 22±3° C., at a relative humidity of 30±10%, and at an illuminance of 150 to 300 Lux for a lighting period of 12 hours (08:00˜20:00), and five or less animals were raised in each polycarbonate cage.
The distilled water (DW)-administered group was used as a negative control (vehicle), and a donepezil-administered group was used as a positive control. The term “dementia group” refers to 5×FAD mice administered distilled water and the term “normal group” refers to wild-type mice administered distilled water. […]
Specifically, the arms of the Y-maze were randomly designated as A, B, and C, the mouse was placed on one arm and allowed to move freely for 5 minutes, and then the arm where the mouse entered was recorded. This record was limited to cases where the tail thereof completely entered, and cases where it entered the same arm again were also recorded (FIG. 5). […]
The case where the mouse entered three different arms one after another was given one point (actual alteration). Alteration behavior is defined as a case where the mouse enters all of three arms in turn and the result was calculated in accordance with Equation 1 below (maximum change: total number of entries—2).

[3] = system: amyloid beta accumulated in mouse brain tissue; assay: Amyloid beta accumulation analysis (thioflavin staining of cleared brain tissue); assay type: in vivo; settings: for Ab number / Ab number/volume: oral, 5×FAD mice
Experimental: as §1
The term “dementia group” refers to 5×FAD mice administered distilled water, and the term “normal group” refers to wild-type mice administered distilled water.
For the amyloid beta accumulated in mouse brain tissue, brain tissue over 1 mm in size was made transparent using a tissue transparency technique, stained with thioflavin, imaged in three dimensions, and then quantified as plaques for each brain region using the Imaris program.
In addition, three 1 mm-thick brain tissues were collected from each group, the volumes thereof were measured, and the total number of accumulated amyloid beta was measured.

[4] = system: phosphorylated tau protein; assay: Tau protein hyperphosphorylation analysis (IHC); assay type: in vivo, mouse
Experimental: The experimental animals used herein were 24-week-old 5×FAD (Aβ plaques) Alzheimer's models. The experimental animals were raised at a temperature of 22±3° C., at a relative humidity of 30±10%, and at an illuminance of 150 to 300 Lux for a lighting period of 12 hours (08:00˜20:00), and five or less animals were raised in each polycarbonate cage. The distilled water (DW)-administered group was used as a negative control (vehicle), and a donepezil-administered group was used as a positive control. The term “dementia group” refers to 5×FAD mice administered distilled water, and the term “normal group” refers to wild-type mice administered distilled water. Hyperphosphorylation (p-tau) of tau protein was analyzed through image observation based on immunohistochemistry (IHC) using an antibody that detects tau protein expressed in mouse brain tissue and phosphorylated tau protein.

TNF-α = assay: Neuroinflammatory marker analysis (ELISA), TNF-α; assay type: in vivo, mouse; settings: 2′-FL-administered dementia group compared to the dementia group; FIG. 12
Experimental: (§2) The experimental animals used herein were 24-week-old 5×FAD (Aβ plaques) Alzheimer's models. The experimental animals were raised at a temperature of 22±3° C., at a relative humidity of 30±10%, and at an illuminance of 150 to 300 Lux for a lighting period of 12 hours (08:00˜20:00), and five or less animals were raised in each polycarbonate cage. The distilled water (DW)-administered group was used as a negative control (vehicle), and a donepezil-administered group was used as a positive control. The term “dementia group” refers to 5×FAD mice administered distilled water, and the term “normal group” refers to wild-type mice administered distilled water. The concentrations of neuroinflammatory cytokines, TNF-α and IL-6 in mouse brain tissue homogenates were analyzed using enzyme-linked immunosorbent assay (ELISA).

IL-6 = assay: Neuroinflammatory marker analysis (ELISA), IL-6; assay type: in vivo, mouse; settings: 2′-FL-administered dementia group compared to the dementia group; FIG. 13
Experimental: as §2

[5] = 2′-FL 300 group, 1st brain tissue
[6] = 2′-FL 300 group, 2nd brain tissue
[7] = 2′-FL 300 group, 3rd brain tissue
[8] = 2′-FL 600 group, 1st brain tissue
[9] = 2′-FL 600 group, 2nd brain tissue
[10] = 2′-FL 600 group, 3rd brain tissue
[11] = 2′-FL 1200 group, 1st brain tissue
[12] = 2′-FL 1200 group, 2nd brain tissue
[13] = 2′-FL 1200 group, 3rd brain tissue

For 2′-fucosyllactose [2′-FL], the “arrival route to the escape platform” value ([1]; 5th day of water maze training, 2′-FL-administered dementia group compared to the dementia group, FIG. 4) was “simplified”, the “spatial memory through training” value ([1]; all concentrations, 2′-FL-administered dementia group compared to the dementia group) was “significantly improved spatial memory” and the “time to arrive at the escape platform during the water maze training period” value ([1]; dementia group (5×FAD mice), oral 8 weeks, compared to distilled water (vehicle), FIGS. 2 and 3) was “reduced the time to arrive at the escape platform”. The “time to arrive at the escape platform during the water maze training period” value (wild-type mice) was “reduced the time to arrive at the escape platform”, the “spontaneous alteration (SA)” value [2] was “significantly increased SA” and the Ab number [3, 5] was 23900. It also gave an Ab number/volume [3, 5] of 8628, an Ab number [3, 6] of 26900 and an Ab number/volume [3, 6] of 9642. For the same substance, the Ab number [3, 7] was 42000, the Ab number/volume [3, 7] was 12174 and the Ab number ([3]; 2′-FL 300 group, Avr. of three brain tissues) was 30933. For the same substance, the Ab number/volume ([3]; 2′-FL 300 group, Avr. of three brain tissues, *p ≤ 0.05 vs. Vehicle) was 10148*, the Ab number [3, 8] was 32000 and the Ab number/volume [3, 8] was 11722. The Ab number [3, 9] was 38400, the Ab number/volume [3, 9] was 11852 and the Ab number [3, 10] was 20800. For the same substance, the Ab number/volume [3, 10] was 5762, the Ab number ([3]; 2′-FL 600 group, Avr. of three brain tissues) was 30400 and the Ab number/volume ([3]; 2′-FL 600 group, Avr. of three brain tissues, *p ≤ 0.05 vs. Vehicle) was 9778*. For the same substance, the Ab number [3, 11] was 34300, the Ab number/volume [3, 11] was 10719 and the Ab number [3, 12] was 31900. It also gave an Ab number/volume [3, 12] of 7800, an Ab number [3, 13] of 37000 and an Ab number/volume [3, 13] of 12092. The Ab number ([3]; 2′-FL 1200 group, Avr. of three brain tissues) was 34400, the Ab number/volume ([3]; 2′-FL 1200 group, Avr. of three brain tissues, *p ≤ 0.05 vs. Vehicle) was 10203* and the amyloid beta accumulation ([3]; brain cortex of dementia group, n=8-12, FIG. 7) was “decrease in amyloid beta accumulation”. For the same substance, the amyloid beta accumulation ([3]; brain hippocampus of dementia group, n=8-12, FIG. 8) was “decrease in amyloid beta accumulation”, the “accumulation of amyloid beta throughout the brain” value ([3]; dementia group, three 1 mm-thick brain tissues per group, Table 1, FIG. 9) was “significantly inhibited” and the “inhibition of tau protein hyperphosphorylation” value ([4]; brain cortex of dementia group, n=8~12, FIG. 10) was “no significant effect”. For the same substance, the “inhibition of tau protein hyperphosphorylation” value ([4]; brain hippocampus of dementia group, n=8~12, FIG. 11) was “no significant effect”, the “concentration of TNF-α” value (TNF-α) was “significantly decreased” and the “concentration of IL-6” value (IL-6) was “significantly decreased”.
